Measured values as given in patent US12162864B2, “Condensed-cyclic compound” (Takeda Pharmaceutical Company Limited, priority 2018, dated 2024).
pEC50: −log10 of the molar value.

Each molecule was assayed against T1, human M1 receptor (Homo sapiens, UniProt P11229) (assay: Measurement of M1 receptor positive allosteric modulator (M1PAM) activity). Conditions: PAM activity in presence of acetylcholine at EC20 concentration; CHO-K1 cells stably expressing human M1 receptor; IP1 time-resolved fluorescence.
T1 construct: expressed in transfected cells; host or cells: CHO-K1
T1 sequence (P11229 1-460): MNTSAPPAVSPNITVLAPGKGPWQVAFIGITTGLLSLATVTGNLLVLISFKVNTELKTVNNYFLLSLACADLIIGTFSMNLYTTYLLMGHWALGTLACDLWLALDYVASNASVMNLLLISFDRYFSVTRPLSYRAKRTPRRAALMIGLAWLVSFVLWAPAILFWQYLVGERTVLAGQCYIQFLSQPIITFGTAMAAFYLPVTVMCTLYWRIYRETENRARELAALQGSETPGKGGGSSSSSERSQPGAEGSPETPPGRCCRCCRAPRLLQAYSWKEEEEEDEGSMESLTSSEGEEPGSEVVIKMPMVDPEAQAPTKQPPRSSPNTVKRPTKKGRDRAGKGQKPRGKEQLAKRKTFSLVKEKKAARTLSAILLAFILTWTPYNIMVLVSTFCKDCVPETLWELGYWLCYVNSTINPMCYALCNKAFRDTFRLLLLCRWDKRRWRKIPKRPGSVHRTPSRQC
Type: cell-based
Protocol: Measurement of M1 Receptor Positive Allosteric Modulator (M1PAM) Activity
The activity of a test compound in the presence of acetylcholine at an EC20 concentration affording about 20% action of the maximum activity was measured as PAM activity. The method therefor is as follows. To a 384-well white plate (Greiner™) was added 4 μL of the test compound diluted with IP1 Stimulation buffer (CisBio™) containing 0.1% fatty acid-free BSA containing 80 nM acetylcholine. Freeze stock of CHO-K1 cells stably expressing human M1 receptor (hCHRMl) was prepared with IP1 Stimulation buffer (CisBio™) containing 0.1% fatty acid-free BSA, 4 μL thereof was added (10,000 cells/well) and the mixture was cultured in a 5% CO2 incubator at 37° C. for 1 hr. 4 μL of a solution (CisBio™) containing IP1-d2 and Anti-IP1-cryptate Tb conjugate was added the mixture was incubated at room temperature for 1 hr, and the time-resolved fluorescence signal was measured on an Envision plate reader (Perkin Elmer™). The activity (%) of the test compound was calculated by defining the value when acetylcholine was added at the final concentration of 20 μM as 100% and the value when DMSO was added instead of the test compound under acetylcholine-free conditions as 0%, and the EC50 value was calculated as a value of 50% of the concentration dependence curve of the test compound.
`Cn1cc(-c2ccc(Cc3cc(C(=O)N[C@H]4CCOC[C@@H]4O)c(F)c4c3OCC4)cc2)nn1` [Example 1, 1,5-anhydro-2,3-dideoxy-3-(((4-fluoro-7-(4-(1-methyl-1H-1,2,3-triazol-4-yl)benzyl)-2,3-dihydro-1-benzofuran-5-yl)carbonyl)amino)-L-threo-pentitol] showed a pEC50 of 8.51. In the case of `Cn1cc(-c2ccc(Cc3cc(C(=O)N[C@H]4CCOC[C@@H]4O)c(F)c4c3OCC4)cc2)cn1` [Example 2, 1,5-anhydro-2,3-dideoxy-3-(((4-fluoro-7-(4-(1-methyl-1H-pyrazol-4-yl)benzyl)-2,3-dihydro-1-benzofuran-5-yl)carbonyl)amino)-L-threo-pentitol], the pEC50 was 8.31. Work on `O=C(N[C@H]1CCOC[C@@H]1O)c1cc(Cc2ccc(-n3cccn3)cc2)c2c(c1F)CCO2` [Example 9, 1,5-anhydro-2,3-dideoxy-3-(((4-fluoro-7-(4-(1H-pyrazol-1-yl)benzyl)-2,3-dihydro-1-benzofuran-5-yl)carbonyl)amino)-L-threo-pentitol] yielded a pEC50 of 8.12. For `O=C(N[C@H]1CCCC[C@@H]1O)c1cc(Cc2ccc(-n3cccn3)cc2)c2c(c1F)CCO2` [Example 10, 4-fluoro-N-((1S,2S)-2-hydroxycyclohexyl)-7-(4-(1H-pyrazol-1-yl)benzyl)-2,3-dihydro-1-benzofuran-5-carboxamide], the pEC50 was 7.77. For `O=C(N[C@H]1COCC[C@@H]1O)c1cc(Cc2ccc(-n3cccn3)cc2)c2c(c1F)CCO2` [Example 11, 1,5-anhydro-2,4-dideoxy-2-(((4-fluoro-7-(4-(1H-pyrazol-1-yl)benzyl)-2,3-dihydro-1-benzofuran-5-yl)carbonyl)amino)-L-threo-pentitol], the pEC50 was 7.02. For `CNC(=O)c1ccc(Cc2cc(C(=O)N[C@H]3CCOC[C@@H]3O)c(F)c3c2OCC3)cc1F` [Example 12, 1,5-anhydro-2,3-dideoxy-3-(((4-fluoro-7-(3-fluoro-4-(methylcarbamoyl)benzyl)-2,3-dihydro-1-benzofuran-5-yl)carbonyl)amino)-L-threo-pentitol], the pEC50 was 7.96. In the case of `O=C(NC[C@@H]1CCCO1)c1ccc(Cc2cc(C(=O)N[C@H]3CCOC[C@@H]3O)c(F)c3c2OCC3)cc1F` [Example 15, 1,5-anhydro-2,3-dideoxy-3-(((4-fluoro-7-(3-fluoro-4-(((2S)-tetrahydrofuran-2-ylmethyl)carbamoyl)benzyl)-2,3-dihydro-1-benzofuran-5-yl)carbonyl)amino)-L-threo-pentitol], the pEC50 was 8.31. With `COc1c(C(=O)N[C@H]2CCOC[C@@H]2O)cc(Cc2ccc(-c3cn(C)nn3)cc2)c2c1CCO2` [Example 18, 1,5-anhydro-2,3-dideoxy-3-(((4-methoxy-7-(4-(1-methyl-1H-1,2,3-triazol-4-yl)benzyl)-2,3-dihydro-1-benzofuran-5-yl)carbonyl)amino)-L-threo-pentitol] the pEC50 was 8.22. For `Cn1cc(-c2ccc(Cc3cc(C(=O)N[C@H]4CCOC[C@@H]4O)c(O)c4c3OCC4)cc2)nn1` [Example 20, 1,5-anhydro-2,3-dideoxy-3-(((4-hydroxy-7-(4-(1-methyl-1H-1,2,3-triazol-4-yl)benzyl)-2,3-dihydro-1-benzofuran-5-yl)carbonyl)amino)-L-threo-pentitol], the pEC50 was 7.37. For `COCCNC(=O)c1ccc(Cc2cc(C(=O)N[C@H]3CCOC[C@@H]3O)c(OC)c3c2OCC3)cc1F` [Example 32, 1,5-anhydro-2,3-dideoxy-3-(((7-(3-fluoro-4-((2-methoxyethyl)carbamoyl)benzyl)-4-methoxy-2,3-dihydro-1-benzofuran-5-yl)carbonyl)amino)-L-threo-pentitol], the pEC50 was 7.62. For `COc1c(C(=O)N[C@H]2CCOC[C@@H]2O)cc(Cc2ccc(C(=O)NC[C@@H]3CCCO3)c(F)c2)c2c1CCO2` [Example 33, 1,5-anhydro-2,3-dideoxy-3-(((7-(3-fluoro-4-(((2S)-tetrahydrofuran-2-ylmethyl)carbamoyl)benzyl)-4-methoxy-2,3-dihydro-1-benzofuran-5-yl)carbonyl)amino)-L-threo-pentitol], the pEC50 was 7.96. Work on `COc1c(C(=O)N[C@H]2CCOC[C@@H]2O)cc(Cc2ccc(C(=O)NC[C@H]3CCCO3)c(F)c2)c2c1CCO2` [Example 43, 1,5-anhydro-2,3-dideoxy-3-(((7-(3-fluoro-4-(((2R)-tetrahydrofuran-2-ylmethyl)carbamoyl)benzyl)-4-methoxy-2,3-dihydro-1-benzofuran-5-yl)carbonyl)amino)-L-threo-pentitol] yielded a pEC50 of 7.02. For `COc1c(C(=O)N[C@H]2CCOC[C@@H]2O)cc(Cc2ccc(-c3cn(C)nn3)cc2)c2c1CCC2` [Example 53, 1,5-anhydro-2,3-dideoxy-3-(((4-methoxy-7-(4-(1-methyl-1H-1,2,3-triazol-4-yl)benzyl)-2,3-dihydro-1H-inden-5-yl)carbonyl)amino)-L-threo-pentitol], the pEC50 was 8.49. For `COc1c(C(=O)N[C@H]2CCOC[C@@H]2O)cc(Cc2ccc(-c3cnn(C)c3)nc2)c2c1CCC2` [Example 55, 1,5-anhydro-2,3-dideoxy-3-(((4-methoxy-7-((6-(1-methyl-1H-pyrazol-4-yl)pyridin-3-yl)methyl)-2,3-dihydro-1H-inden-5-yl)carbonyl)amino)-L-threo-pentitol], the pEC50 was 8.26. `CNC(=O)c1ccc(Cc2cc(C(=O)N[C@H]3CCOC[C@@H]3O)c(OC)c3c2CCC3)cc1F` [Example 57, 1,5-anhydro-2,3-dideoxy-3-(((7-(3-fluoro-4-(methylcarbamoyl)benzyl)-4-methoxy-2,3-dihydro-1H-inden-5-yl)carbonyl)amino)-L-threo-pentitol] was tested, and the pEC50 was 8.05. In the case of `COCCNC(=O)c1ccc(Cc2cc(C(=O)N[C@H]3CCOC[C@@H]3O)c(OC)c3c2CCC3)cc1F` [Example 58, 1,5-anhydro-2,3-dideoxy-3-(((7-(3-fluoro-4-((2-methoxyethyl)carbamoyl)benzyl)-4-methoxy-2,3-dihydro-1H-inden-5-yl)carbonyl)amino)-L-threo-pentitol], the pEC50 was 8.03. With `COc1c(C(=O)N[C@H]2CCOC[C@@H]2O)cc(Cc2ccc(C(=O)NC[C@@H]3CCCO3)c(F)c2)c2c1CCC2` [Example 59, 1,5-anhydro-2,3-dideoxy-3-(((7-(3-fluoro-4-(((2S)-tetrahydrofuran-2-ylmethyl)carbamoyl)benzyl)-4-methoxy-2,3-dihydro-1H-inden-5-yl)carbonyl)amino)-L-threo-pentitol] the pEC50 was 8.41. `COc1c(C(=O)N[C@H]2CCOC[C@@H]2O)cc(Cc2ccc(C(=O)NCCCS(C)(=O)=O)c(F)c2)c2c1CCC2` [Example 66, 1,5-anhydro-2,3-dideoxy-3-(((7-(3-fluoro-4-((3-(methylsulfonyl)propyl)carbamoyl)benzyl)-4-methoxy-2,3-dihydro-1H-inden-5-yl)carbonyl)amino)-L-threo-pentitol] was tested, and the pEC50 was 7.92. For `COc1c(C(=O)N[C@H]2CCOC[C@@H]2O)cc(Cc2ccc(C(=O)NC[C@H]3CCCO3)c(F)c2)c2c1CCC2` [Example 70, 1,5-anhydro-2,3-dideoxy-3-(((7-(3-fluoro-4-(((2R)-tetrahydrofuran-2-ylmethyl)carbamoyl)benzyl)-4-methoxy-2,3-dihydro-1H-inden-5-yl)carbonyl)amino)-L-threo-pentitol], the pEC50 was 7.49.
